According to patent publication US20080255186A1, “Pyrazolo[3,4-B]Pyridine Compound, and Its Use as a Pde4 Inhibitor” (priority 2005, published 2008):
Several values for one entry are separate records, joined by “and”; a condition that tells them apart may be missing. Equal entries are not always repeated.

Experiments:
[1] = test system: TNF-α (TNF-alpha) production in Human Whole Blood; assay: Inhibition of TNF-alpha production in Human Whole Blood (MSD assay); format: cell-based
Description: (§1) This is an optional supplementary test, e.g. for potentially orally-administrable PDE4 inhibitors. Also, as the assay may measure the effect of PDE4 inhibitors after loss by protein binding, it might possibly also be relevant to externally-topically-administrable PDE4 inhibitors as protein-binding-loss of compound is possible during transport through the skin.
(§2) Test compounds are prepared as a ca. 10 mM stock solution in DMSO and a dilution series prepared in DMSO with 8 successive 3-fold dilutions, either directly from the 10 mM stock solution or from a more dilute solution in DMSO. The compound is added to assay plates using a Biomek Fx liquid handling robot.
Heparinised blood drawn from normal volunteers is dispensed (ca. 100 μl=ca. 100 ul) into microtitre plate wells containing ca. 0.5 or ca. 1.0 μl (ul, microlitres) of an appropriately diluted test compound solution. […] Plasma TNFα content is determined by electrochemiluminescence assay using the MSD technology (see below), the IGEN technology (see below) or by enzyme linked immunosorbant assay (ELISA) (see below). […]
For the Whole Blood assay, plates are washed after 2 hours shaking with a Skanwasher 300 version B (Skatron Instruments AS. PO Box 8, N-3401 Lier, Norway). […] About 150 μl (ul) of Read Buffer T (2×) is added to the plates, which are then read on a MSD Sector 6000. […]

[2] = test system: TNF-α (TNF-alpha) production in Human Whole Blood; assay: Inhibition of TNF-alpha production in Human Whole Blood (IGEN assay); format: cell-based
Description: as §1, §2
Heparinised blood drawn from normal volunteers is dispensed (ca. 100 μl=ca. 100 ul) into microtitre plate wells containing ca. 0.5 or ca. 1.0 μl (ul, microlitres) of an appropriately diluted test compound solution. […] Plasma TNFα content is determined by electrochemiluminescence assay using the MSD technology (see below), the IGEN technology (see below) or by enzyme linked immunosorbant assay (ELISA) (see below).
Ca. […] 50 μl (ul) of streptavidin/biotinylated anti-TNF-α antibody mix, ca. 25 μl ruthenium tagged anti-TNF-α monoclonal and ca. 100 μl PBS containing 0.1% bovine serum albumin are added to each well and the plates are sealed and shaken for ca. 2 hours before being read on an IGEN instrument.

Question: `CCc1nc2c(cnn2CC)c(NC2CCOCC2)c1CNC(=O)c1cc(C)no1` [Example 1, N-{[1,6-diethyl-4-(tetrahydro-2H-pyran-4-ylamino)-1H-pyrazolo[3,4-b]pyridin-5-yl]methyl}-3-methyl-5-isoxazolecarboxamide] was tested. Which IC50 ([1]; Homo sapiens, n = about 3 or 4, LPS-stimulated, read-out: Whole Blood, Mean pIC50 (MSD assay) (converted)) did it give?
Answer: The IC50 was roughly 0.398 nM.

Question: And the “Whole Blood individual pIC50 test values (MSD assay)” value ([1]; individual measurements)?
Answer: Its value is ~9.19 and ~9.50 (2×) and > 9.82.

Question: What about the IC50 ([2]; n = about 4, LPS-stimulated, read-out: Whole Blood, Mean pIC50 (IGEN assay) (converted)) of the same compound?
Answer: Its IC50 is roughly 2 nM.

Question: And the IC50 ([2]; range of individual measurements, read-out: Whole Blood individual pIC50 test values, range (IGEN assay) (converted))?
Answer: The IC50 was 1.26 to 2.63 nM.
